Counter-ions that a name gives are not always drawn.
How the values were obtained:
p38alpha = target: T1, p38alpha (Homo sapiens, UniProt Q16539); test: P38alpha enzyme inhibition assay (Alphascreen kinase activity assay); type: biochemical; settings: IC50 classes; 2 hours preincubation at 25° C., 250 μM ATP; read-out: p38α inhibition
T1 construct: purchased Invitrogen PV3304
Experimental: P38alpha Enzyme Inhibition Assay
The inhibitory activity of compounds was determined using an Alphascreen® (Perkin Elmer) based kinase activity assay. Kinase reactions consisted of 25 mM HEPES pH 7.5, 10 mM MgCl2, 100 μM Na3VO4, 2 mM DTT, 0.05 mg/ml Tween […] (Invitrogen, PV3304), 1% DMSO and 0.3 μg/ml ATF-2 fusion protein (New England Biolabs, 9224). Compounds were incubated under these conditions for 2 hours, at 25° C., prior to the initiation of the kinase activity by the addition of the 250 μM ATP. Reaction volumes were 20 uL. After 1 hr at 25° C. reactions were stopped by the adding 10 uL of 25 mM HEPES pH 7.5 containing 62.5 mM EDTA, 0.05% Triton X-100, 10% BSA and 0.83 ng/uL anti-phospho-ATF2 antibody (Abcam, ab28812). Detection was performed by measuring luminescence following the addition of Alphascreen Donor beads (Perkin Elmer 6765300) and Protein A Alphascreen Acceptor beads (Perkin Elmer 6760137), both at a final concentration of 20 ug/ml. IC50 values were determined from concentration-response curves.

[1] = test system: Peripheral Blood Mononuclear Cells (PBMCs); test: LPS-stimulated PBMC TNFα release assay; type: cell-based; settings: IC50 classes; human PBMC, LPS 10 ng/ml, 18 h; read-out: LPS-stimulated PBMC TNFα release inhibition
Experimental: 1-10 nM ‘+’; • <1 nM ‘++’ LPS-Stimulated PBMC TNFα Release Assay
Peripheral Blood Mononuclear Cells (PBMCs) were isolated from healthy human volunteer blood using a standard density gradient centrifugation technique. Citrated blood was placed onto Histopaque™ and centrifuged. The PBMCs were removed from the density gradient interface and washed in phosphate buffered saline (PBS). The PBMCs were suspended in RPMI 1640 medium (without serum), dispensed into a 96-well plate and incubated at 37° C. for 3 h in a humidified incubator. After incubation, the medium was replaced (with medium containing 1% foetal bovine serum) and the plate incubated at 37° C., for 1 h, in the presence of test compound or the appropriate vehicle. LPS (10 ng/ml), or an appropriate vehicle control, was then added to the cells and the plate returned to the incubator for 18 h. Cell-free supernatants were removed and assayed for TNFα levels using MSD plates on the Sector Imager 6000 (MesoScale).
A dose response curve to each test compound was performed and the effect of compound in each experiment was expressed as a percentage inhibition of the control TNFα release. Dose response curves were plotted and compound potency (IC50) was determined. Compounds were tested in at least three separate experiments.

T1 sequence (Q16539 whole entry): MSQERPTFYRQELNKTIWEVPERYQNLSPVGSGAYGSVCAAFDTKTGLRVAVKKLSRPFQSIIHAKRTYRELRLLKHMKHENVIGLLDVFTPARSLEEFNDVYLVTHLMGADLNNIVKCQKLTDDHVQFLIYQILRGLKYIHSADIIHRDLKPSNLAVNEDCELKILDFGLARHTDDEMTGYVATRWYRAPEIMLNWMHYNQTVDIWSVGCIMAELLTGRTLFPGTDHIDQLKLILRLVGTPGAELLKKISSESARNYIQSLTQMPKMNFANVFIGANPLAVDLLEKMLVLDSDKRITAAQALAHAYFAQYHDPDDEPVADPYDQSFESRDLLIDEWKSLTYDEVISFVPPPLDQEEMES

| SMILES | IC50 (p38alpha) | IC50 [1] |
| --- | --- | --- |
| COc1c(NC(=O)N[C@H]2CC[C@@H](Oc3ccc4nnc([C@@H]5CCCN5C)n4c3)c3ccccc32)cc(C(C)(C)C)cc1N(CCO)S(C)(=O)=O [Example 17, N-[5-tert-Butyl-2-methoxy-3-(3-{(1S,4R)-4-[3-((S)-1-methyl-pyrrolidin-2-1)-[1,2,4]triazolo[4,3-a]pyridin-6-yloxy]-1,2,3,4-tetrahydro-naphthalen-1-yl}-ureido)-phenyl]-N-(2-hydroxy-ethyl)-methanesulfonamide formate salt] | 1 to 10 nM | > 5 nM |
| CN1CCC[C@@H]1c1nnc2ccc(O[C@@H]3CC[C@H](NC(=O)Nc4cc(NS(C)(=O)=O)cc(C(C)(C)C)c4)c4ccccc43)cn12 [Example 22] | < 1 nM | 1 to 5 nM |
| CC(C)N1CCCC[C@H]1c1nnc2ccc(O[C@@H]3CC[C@H](NC(=O)Nc4cc(NS(C)(=O)=O)cc(C(C)(C)C)c4)c4ccccc43)cn12 [Example 23] | 1 to 10 nM | > 5 nM |
| CN1CC(C)(C)C[C@H]1c1nnc2ccc(O[C@@H]3CC[C@H](NC(=O)Nc4cc(NS(C)(=O)=O)cc(C(C)(C)C)c4)c4ccccc43)cn12 [Example 26, N-[3-tert-Butyl-5-(3-{(1S,4R)-4-[3-((S)-1,4,4-trimethyl-pyrrolidin-2-yl)-[1,2,4]triazolo[4,3-a]pyridin-6-yloxy]-1,2,3,4-tetrahydro-naphthalenyl}-ureido)-phenyl]-methanesulfonamide] | 1 to 10 nM | 1 to 5 nM |
| CC(C)N1CCC[C@@]1(C)c1nnc2ccc(O[C@@H]3CC[C@H](NC(=O)Nc4cc(NS(C)(=O)=O)cc(C(C)(C)C)c4)c4ccccc43)cn12 [Example 28, N-[3-tert-Butyl-5-(3-{(1S,4R)-4-[3-((S)-1-isopropyl-2-methyl-pyrrolidin-2-yl)-[1,2,4]triazolo[4,3-a]pyridin-6-yloxy]-1,2,3,4-tetrahydro-naphthalen-1-yl}-ureido)-phenyl]-methanesulfonamide] | < 1 nM | 1 to 5 nM |
| CC(C)(C)c1cc(NC(=O)N[C@H]2CC[C@@H](Oc3ccc4nnc([C@]5(C)CCCN5)n4c3)c3ccccc32)cc(NS(C)(=O)=O)c1 [Example 29, N-[3-tert-Butyl-5-(3-{(1S,4R)-4-[3-((S)-2-methyl-pyrrolidin-2-yl)-[1,2,4]triazolo[4,3-a]pyridin-6-yloxy]-1,2,3,4-tetrahydro-naphthalen-1-yl}-ureido)-phenyl]-methanesulfonamide] | < 1 nM | 1 to 5 nM |
| CN1CCC[C@@H](c2nnc3ccc(O[C@@H]4CC[C@H](NC(=O)Nc5cc(NS(C)(=O)=O)cc(C(C)(C)C)c5)c5ccccc54)cn23)C1 [Example 30, N-[3-tert-Butyl-5-(3-{(1S,4R)-4-[3-((R)-1-methyl-piperidin-3-yl)-[1,2,4]triazolo[4,3-a]pyridin-6-yloxy]-1,2,3,4-tetrahydro-naphthalen-1-yl}-ureido)-phenyl]-methanesulfonamide] | 1 to 10 nM | > 5 nM |
| CC(C)(C)c1cc(NC(=O)N[C@H]2CC[C@@H](Oc3ccc4nnc([C@]5(C)CCCN5CCO)n4c3)c3ccccc32)cc(NS(C)(=O)=O)c1 [Example 32, N-{3-tert-Butyl-5-[3-((1S,4R)-4-{3-[(S)-1-(2-hydroxy-ethyl)-2-methyl-pyrrolidin-2-yl]-[1,2,4]triazolo[4,3-a]pyridin-6-yloxy}-1,2,3,4-tetrahydro-naphthalen-1-yl)-ureido]-phenyl}-methanesulfonamide] | < 1 nM | 1 to 5 nM |
| CN(C)C(C)(C)c1nnc2ccc(O[C@@H]3CC[C@H](NC(=O)Nc4cc(N)cc(C(C)(C)C)c4)c4ccccc43)cn12 [Example 34] | < 1 nM | < 1 nM |
| COC(=O)c1cc(NC(=O)N[C@H]2CC[C@@H](Oc3ccc4nnc([C@@H]5CCCN5C)n4c3)c3ccccc32)cc(C(C)(C)C)c1 [Example 40, 3-tert-Butyl-5-(3-{(1S,4R)-4-[3((S)-1-methyl-pyrrolidin-2-yl)-[1,2,4]triazolo[4,3-a]pyridin-6-yloxy]-1,2,3,4-tetrahydro-naphthalen-1-yl}-ureido)-benzoic acid methyl ester] | < 1 nM | 1 to 5 nM |
| CN1CCC[C@@]1(C)c1nnc2ccc(O[C@@H]3CC[C@H](NC(=O)Nc4cc(N5CCOCC5)cc(C(C)(C)C)c4)c4ccccc43)cn12 [Example 48, 1-(3-tert-Butyl-5-morpholin-4-yl-phenyl)-3-{(1S,4R)-4-[3-((S)-1,2-dimethyl-pyrrolidin-2-yl)-[1,2,4]triazolo[4,3-a]pyridin-6-yloxy]-1,2,3,4-tetrahydro-naphthalen-1-yl}-urea] | < 1 nM | < 1 nM |
| CN1CCC[C@H]1c1nnc2ccc(O[C@@H]3CC[C@H](NC(=O)Nc4cc(C(=O)NCCO)cc(C(C)(C)C)c4)c4ccccc43)cn12 [Example 50, 3-tert-Butyl-N-(2-hydroxy-ethyl)-5-(3-{(1S,4R)-4-[3-((S)-1-methyl-pyrrolidin-2-yl)-[1,2,4]triazolo[4,3-a]pyridin-6-yloxy]-1,2,3,4-tetrahydro-naphthalen-1-yl}-ureido)-benzamide] | < 1 nM | > 5 nM |
| CN1CCC[C@H]1c1nnc2ccc(O[C@@H]3CC[C@H](NC(=O)Nc4cc(C(N)=O)cc(C(C)(C)C)c4)c4ccccc43)cn12 [Example 52, 3-tert-Butyl-5-(3-{(1S,4R)-4-[3-((S)-1-methyl-pyrrolidin-2-yl)-[1,2,4]triazolo[4,3-a]pyridin-6-yloxy]-1,2,3,4-tetrahydro-naphthalen-1-yl}-ureido)-benzamide] | < 1 nM | 1 to 5 nM |
| COc1c(NC(=O)N[C@H]2CC[C@@H](Oc3ccc4nnc(N5CCCCC5)n4c3)c3ccccc32)cc(C(C)(C)C)cc1N(CCN(C)C)S(C)(=O)=O [Example 60, N-(5-tert-Butyl-2-methoxy-3-{3-[(1S,4R)-4-(3-piperidin-1-yl-[1,2,4]triazolo[4,3,a]pyridin-6-yloxy)-1,2,3,4-tetrahydro-naphthalen-1-yl]-ureido}-phenyl-N-(2-dimethylamino-ethyl)-methanesulfonamide formate salt] | 1 to 10 nM | > 5 nM |

Source: patent US10100050B2 (CHIESI FARMACEUTICI S.P.A., priority 2015, dated 2018)
